The source made the active and inactive calls. No cut-off for these calls is given here.
Assays:
[1] = target: NACHT, LRR and PYD domains-containing protein 3 (Mus musculus) (UniProt Q8R4B8); assay: Inhibition of NLRP3 inflammasome activation in LPS/ATP-induced C57BL/6 mouse BMDMs assessed as reduction in IL-1beta secretion at 100 nM preincubated with LPS for 4 hrs followed by compound addition for 30 mins and further stimulated with ATP for 30 mins by ELISA relative to control; type: cell-based; conditions: BMDM, time 1.0 hrs
[2] = target: NACHT, LRR and PYD domains-containing protein 3 (Mus musculus) (UniProt Q8R4B8); assay: Inhibition of NLRP3 inflammasome activation in LPS/ATP-induced C57BL/6 mouse BMDMs assessed as reduction in IL-1beta secretion at 200 nM preincubated with LPS for 4 hrs followed by compound addition for 30 mins and further stimulated with ATP for 30 mins by ELISA relative to control; type: cell-based; conditions: BMDM, time 1.0 hrs
[3] = target: NACHT, LRR and PYD domains-containing protein 3 (Mus musculus) (UniProt Q8R4B8); assay: Inhibition of NLRP3 inflammasome activation in LPS/ATP-induced C57BL/6 mouse BMDMs assessed as reduction in IL-1beta secretion at 500 nM preincubated with LPS for 4 hrs followed by compound addition for 30 mins and further stimulated with ATP for 30 mins by ELISA relative to control; type: cell-based; conditions: BMDM, time 1.0 hrs
[4] = target: NACHT, LRR and PYD domains-containing protein 3 (Mus musculus) (UniProt Q8R4B8); assay: (§1) Inhibition of NLRP3 inflammasome activation in LPS/ATP-induced C57BL/6 mouse BMDMs assessed as reduction in IL-1beta secretion at 50 to 200 nM preincubated with LPS for 4 hrs followed by compound addition for 30 mins and further stimulated with ATP for 30 mins by Western blotting analysis relative to oridonin; type: cell-based; conditions: BMDM, dose 50-200 nM, time 1.0 hrs
[5] = target: NACHT, LRR and PYD domains-containing protein 3 (Mus musculus) (UniProt Q8R4B8); assay: Inhibition of NLRP3 inflammasome activation in LPS/ATP-induced C57BL/6 mouse BMDMs assessed as reduction in TNFalpha production at 50 to 200 nM preincubated with compound prior to LPS addition for 30 mins and further stimulated with ATP for 30 mins by Western blotting analysis; type: cell-based; conditions: BMDM, dose 50-200 nM, time 60.0 min
[6] = target: NACHT, LRR and PYD domains-containing protein 3 (Mus musculus) (UniProt Q8R4B8); assay: Inhibition of NLRP3 inflammasome activation in LPS/ATP-induced C57BL/6 mouse BMDMs assessed as reduction in pro-IL-1beta production at 50 to 200 nM preincubated with compound prior to LPS addition for 30 mins and further stimulated with ATP for 30 mins by Western blotting analysis; type: cell-based; conditions: BMDM, dose 50-200 nM, time 60.0 min
[7] = target: NACHT, LRR and PYD domains-containing protein 3 (Mus musculus) (UniProt Q8R4B8); assay: Inhibition of NLRP3 inflammasome activation in LPS-induced C57BL/6 mouse BMDMs assessed as reduction in pro-IL-1beta mRNA level at 50 to 200 nM preincubated for 24 hrs followed by LPS addition for 4 hrs by qRT-PCR analysis; type: cell-based; conditions: BMDM, dose 50-200 nM, time 28.0 hrs
[8] = target: NACHT, LRR and PYD domains-containing protein 3 (Mus musculus) (UniProt Q8R4B8); assay: Inhibition of NLRP3 inflammasome activation in LPS/ATP-induced C57BL/6 mouse BMDMs assessed as reduction in TNFalpha level at 1000 nM preincubated for 30 mins followed by LPS addition for 4 hrs and further ATP stimulation for 30 mins by ELISA; type: cell-based; conditions: BMDM, time 5.0 hrs
[9] = target: NACHT, LRR and PYD domains-containing protein 3 (Mus musculus) (UniProt Q8R4B8); assay: as §1, with “assessed as inhibition of ASC oligomerization by measuring reduction in” for “assessed as reduction in”, “blotting analysis” for “blotting analysis relative to oridonin”; type: cell-based; conditions: BMDM, dose 50-200 nM, time 1.0 hrs
[10] = target: NACHT, LRR and PYD domains-containing protein 3 (Mus musculus) (UniProt Q8R4B8); assay: (§2) Inhibition of NLRP3 inflammasome activation in LPS/ATP-induced C57BL/6 mouse BMDMs assessed as inhibition of ASC oligomerization by measuring reduction in cleaved caspase-1 secretion at 50 to 200 nM preincubated with LPS for 4 hrs followed by compound addition for 30 mins and further stimulated with ATP for 30 mins by Western blotting analysis; type: cell-based; conditions: BMDM, dose 50-200 nM, time 1.0 hrs
[11] = target: NACHT, LRR and PYD domains-containing protein 3 (Mus musculus) (UniProt Q8R4B8); assay: as §2, with “pro-IL-1beta expression” for “cleaved caspase-1 secretion”; type: cell-based; conditions: BMDM, dose 50-200 nM, time 1.0 hrs
[12] = target: Nlrp3/Pycard (Mus musculus) (UniProt Q8R4B8+Q9EPB4); assay: Inhibition of NLRP3/ASC protein-protein interaction in LPS/ATP-induced C57BL/6 mouse BMDMs at 200 nM preincubated with LPS for 4 hrs followed by compound addition for 30 mins and further stimulated with ATP for 30 mins by Western blotting analysis; type: cell-based; conditions: BMDM, time 1.0 hrs
[13] = target: NACHT, LRR and PYD domains-containing protein 3 (Mus musculus) (UniProt Q8R4B8); assay: Binding affinity to NLRP3 in mouse BMDMs at 10^-2 to 10^3 uM incubated for 10 to 90 mins by ITDRF; type: cell-based; conditions: BMDM, dose 0.01-1000 µM, time 10-90 min
[14] = test system: BMDM; assay: Inhibition of mitochondrial damage in mouse BMDMs at 200 nM preincubated with LPS for 4 hrs followed by compound addition for 30 mins and further stimulated with ATP for 30 mins by confocal microscopic analysis; type: functional, cell-based; conditions: time 1.0 hrs
[15] = Hepatotoxicity in mouse assessed as change in AST/ALT ratio at 100 mg/kg, po or 12.5 to 25 mg/kg, iv; type: toxicity, organism-based; conditions: in vivo
[16] = Stability in human plasma assessed as half life measured upto 8 hrs; type: ADME, cell-free
[17] = Stability in rat plasma assessed as half life measured upto 8 hrs; type: ADME, cell-free
[18] = Stability in mouse plasma assessed as half life measured upto 8 hrs; type: ADME, cell-free
[19] = Stability in human liver microsomes assessed as half life preincubated for 5 mins with NADPH followed by compound addition and measured upto 120 mins by LC-MS/MS analysis; type: ADME, Microsome; conditions: time < 125 min
[20] = Stability in rat liver microsomes assessed as half life preincubated for 5 mins with NADPH followed by compound addition and measured upto 120 mins by LC-MS/MS analysis; type: ADME, Microsome; conditions: time < 125 min
[21] = Half-life in ICR mouse at 1 mg/kg, iv measured upto 24 hrs by LC-MS/MS method; type: ADME, organism-based; conditions: in vivo
[22] = AUC in ICR mouse at 1 mg/kg, iv measured upto 24 hrs by LC-MS/MS method; type: ADME, organism-based; conditions: in vivo, iv, 1 mg/kg, 24 h
[23] = Oral bioavailability in ICR mouse at 10 mg/kg measured upto 24 hrs by LC-MS/MS method; type: ADME, organism-based; conditions: in vivo, po, 10 mg/kg, 24 h
[24] = test system: Mus musculus; assay: Antiinflammatory activity in C57BL/6 mouse model of arthritis assessed as reduction in MSU-induced IL-1beta secretion at 12.5 to 25 mg/kg, iv measured upto 24 hrs; type: functional, organism-based; conditions: dose 12.5-25 mg/kg
[25] = test system: Mus musculus; assay: Antiinflammatory activity in C57BL/6 mouse model of arthritis assessed as reduction in MSU-induced NLRP3 expression in joints at 12.5 to 25 mg/kg, iv measured upto 24 hrs; type: functional, organism-based; conditions: dose 12.5-25 mg/kg
[26] = test system: Mus musculus; assay: Antiinflammatory activity in C57BL/6 mouse model of arthritis assessed as reduction in MSU-induced pro-caspase 1 expression in joints at 12.5 to 25 mg/kg, iv measured upto 24 hrs; type: functional, organism-based; conditions: dose 12.5-25 mg/kg
[27] = test system: Mus musculus; assay: Antiinflammatory activity in MSU-induced C57BL/6 mouse model of arthritis assessed as reduction in inflammatory cell infiltration at 12.5 to 25 mg/kg, iv measured after 24 hrs; type: functional, organism-based; conditions: dose 12.5-25 mg/kg
[28] = test system: Mus musculus; assay: Antiinflammatory activity in MSU-induced C57BL/6 mouse model of arthritis assessed as reduction in inflammatory cell infiltration at 100 mg/kg, po measured after 24 hrs; type: functional, organism-based

Chain of NACHT, LRR and PYD domains-containing protein 3 (Mus musculus) (Q8R4B8 whole entry, the tested form may be a part): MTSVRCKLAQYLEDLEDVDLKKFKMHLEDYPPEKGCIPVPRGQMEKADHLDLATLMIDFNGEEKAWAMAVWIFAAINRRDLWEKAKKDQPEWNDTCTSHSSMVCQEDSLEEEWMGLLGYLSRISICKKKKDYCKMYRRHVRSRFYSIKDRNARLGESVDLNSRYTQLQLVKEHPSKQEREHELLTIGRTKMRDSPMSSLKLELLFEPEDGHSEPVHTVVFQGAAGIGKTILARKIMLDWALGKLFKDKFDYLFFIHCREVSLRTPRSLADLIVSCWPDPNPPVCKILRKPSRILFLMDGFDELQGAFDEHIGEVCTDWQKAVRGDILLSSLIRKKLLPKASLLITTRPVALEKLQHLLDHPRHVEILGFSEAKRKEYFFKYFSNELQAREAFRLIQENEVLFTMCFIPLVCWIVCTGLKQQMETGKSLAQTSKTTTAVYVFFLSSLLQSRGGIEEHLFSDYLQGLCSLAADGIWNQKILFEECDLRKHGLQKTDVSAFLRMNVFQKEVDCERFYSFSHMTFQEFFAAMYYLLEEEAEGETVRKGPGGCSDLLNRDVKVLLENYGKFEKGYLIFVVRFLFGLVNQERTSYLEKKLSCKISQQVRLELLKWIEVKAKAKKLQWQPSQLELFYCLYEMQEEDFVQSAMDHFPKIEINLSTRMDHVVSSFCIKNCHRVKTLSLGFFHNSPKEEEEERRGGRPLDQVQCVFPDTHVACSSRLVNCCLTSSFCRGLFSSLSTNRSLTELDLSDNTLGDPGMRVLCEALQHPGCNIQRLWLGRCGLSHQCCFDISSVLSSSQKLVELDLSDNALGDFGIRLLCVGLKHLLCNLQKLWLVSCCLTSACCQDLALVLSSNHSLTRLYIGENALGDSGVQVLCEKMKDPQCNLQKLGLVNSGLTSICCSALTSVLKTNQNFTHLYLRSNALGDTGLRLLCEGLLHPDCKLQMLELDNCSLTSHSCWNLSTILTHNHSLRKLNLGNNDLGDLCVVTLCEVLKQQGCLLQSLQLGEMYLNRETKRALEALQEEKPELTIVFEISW
Chain of Nlrp3/Pycard (Mus musculus) (Q8R4B8 whole entry, looked up, the tested form may be a part): as the sequence (Q8R4B8 whole entry, the tested form may be a part) above
Chain of Nlrp3/Pycard (Mus musculus) (Q9EPB4 whole entry, looked up, the tested form may be a part): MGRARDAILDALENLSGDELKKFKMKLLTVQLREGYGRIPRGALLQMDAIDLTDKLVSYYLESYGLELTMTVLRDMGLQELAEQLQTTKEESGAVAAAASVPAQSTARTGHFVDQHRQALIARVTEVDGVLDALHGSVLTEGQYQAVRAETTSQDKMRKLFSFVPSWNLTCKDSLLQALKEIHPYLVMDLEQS

inhibition [1]: 64.3% | inhibition [2]: 87.5% | inhibition [3]: 95.3% | inhibition [4]: Active | inhibition [5]: inactive | inhibition [6]: Active | inhibition [7]: inactive | inhibition [8]: Active | inhibition [9]: Active | inhibition [10]: Active | inhibition [11]: inactive | inhibition [12]: Active | Activity [13]: Active | half-life [16]: 6.92 h | half-life [17]: 6.21 h | half-life [18]: 15.2 h | half-life [19]: 3.03 h | half-life [20]: 3.19 h | half-life [21]: 1.98 h | AUC [22]: 242 ng·h/mL | F [23]: 9%
Compound: C=C1C(=O)[C@]23[C@H](O)[C@H]1CC[C@H]2[C@]12C=CCC(C)(C)[C@H]1[C@H](O)[C@@]3(OCCC(=O)O)OC2
inhibition [14]: inactive | Activity [15]: Non-Toxic | Activity [24]: Active | Activity [25]: inactive | Activity [26]: inactive | Activity [27]: Active | Activity [28]: Active

Reference: ChEMBL document CHEMBL5506055, “Hit-to-Lead Optimization of the Natural Product Oridonin as Novel NLRP3 Inflammasome Inhibitors with Potent Anti-Inflammation Activity” (J Med Chem, 2024)
